Assay results from US8017602B2, “N-(2-(2-(5-hydroxy-3-oxo-3,4-dihydro-2H-benzo[b][1,4]oxazin-8-yl)ethylamino)ethyl)-3-(phenethoxy)propanamide derivatives, processes for their preparation, pharmaceutical compositions containing them and their use in therapy” (AstraZeneca AB, priority 2008, dated 2011).
Structures can show the parent of a compound that is named as a salt.

Biological target: T1, Adrenergic β2 (Homo sapiens, UniProt P07550)
T1 construct: Adherent H292 cells were removed from tissue culture flasks; endogenous in cells; host or cells: H292 cells
Assay: Adrenergic β2 mediated cAMP production in H292 cells (AlphaScreen cAMP detection)
Format: cell-based
Details: for β2 Int Act: Intrinsic Activity, fraction relative to the maximum activity determined for formoterol; for EC50: cAMP production, 60 min at room temperature, 300 μM rolipram, read-out: β2 pEC50 (converted)
Experimental: H292 cells were grown in 225 cm2 flasks incubator at 37° C., 5% CO2 in RPMI medium containing, 10% (v/v) FBS (foetal bovine serum) and 2 mM L-glutamine.
Adherent H292 cells were removed from tissue culture flasks by treatment with Accutase™ cell detachment solution for 15 min. Flasks were incubated for 15 min in a humidified incubator at 37° C., 5% CO2. Detached cells were re-suspended in RPMI media (containing 10% (v/v) FBS and 2 mM L-glutamine) at […]. 10000 cells in 100 μl were added to each well of a tissue-culture-treated 96-well plate and the cells incubated overnight in a humidified incubator at 37° C., 5% CO2. The culture media was removed and cells were washed twice with 100 μl assay buffer and replaced with 50 μL assay buffer (HBSS solution containing 10 mM HEPES pH7.4 and 5 mM glucose). Cells were rested at room temperature for 20 min after which time 25 μl of rolipram (1.2 mM made up in assay buffer containing 2.4% (v/v) dimethylsulphoxide) was added. Cells were incubated with rolipram for 10 min after which time test compounds were added and the cells were incubated for 60 min at room temperature. The final rolipram concentration in the assay was 300 μM and final vehicle concentration was 1.6% (v/v) dimethylsulphoxide. The reaction was stopped by removing supernatants, washing once with 100 μL assay buffer and replacing with 50 μL lysis buffer. The cell monolayer was frozen at −80° C. for 30 min (or overnight).
AlphaScreen™ cAMP Detection
The concentration of cAMP (cyclic adenosine monophosphate) in the cell lysate was determined using AlphaScreen™ methodology. The frozen cell plate was thawed for 20 min on a plate shaker then 10 μl of the cell lysate was transferred to a 96-well white plate. 40 μL of mixed AlphaScreen™ detection beads pre-incubated with biotinylated cAMP, was added to each well and the plate incubated at room temperature for 10 h in the dark. The AlphaScreen™ signal was measured using an EnVision spectrophotometer (Perkin-Elmer Inc.) with the recommended manufacturer's settings. cAMP concentrations were determined by reference to a calibration curve determined in the same experiment using standard cAMP concentrations. Concentration response curves for agonists were constructed and data was fitted to a four parameter logistic equation to determine both the pEC50 and Intrinsic Activity. Intrinsic Activity was expressed as a fraction relative to the maximum activity determined for formoterol in each experiment.

T1 sequence (P07550 whole entry): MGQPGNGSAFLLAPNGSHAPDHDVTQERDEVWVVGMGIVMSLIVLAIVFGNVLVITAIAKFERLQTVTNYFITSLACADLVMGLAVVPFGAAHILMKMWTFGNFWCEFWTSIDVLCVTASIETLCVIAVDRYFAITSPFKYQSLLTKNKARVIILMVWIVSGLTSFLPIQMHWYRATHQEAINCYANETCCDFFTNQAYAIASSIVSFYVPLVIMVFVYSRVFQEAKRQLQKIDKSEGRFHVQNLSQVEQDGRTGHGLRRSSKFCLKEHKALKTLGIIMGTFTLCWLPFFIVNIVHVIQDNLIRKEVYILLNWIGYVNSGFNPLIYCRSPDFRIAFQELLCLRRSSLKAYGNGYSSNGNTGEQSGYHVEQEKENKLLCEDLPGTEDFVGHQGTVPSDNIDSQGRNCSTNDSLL

Row | Structure (SMILES) | β2 Int Act | EC50 [nM]
1 | C[C@@H](N(CCNCCc1ccc(O)c2c1OCC(=O)N2)C(=O)CCOCCc1cccc(-c2cnn(C)c2)c1)C(C)(C)C [Example 26, (R)—N-(3,3-Dimethylbutan-2-yl)-N-(2-(2-(5-hydroxy-3-oxo-3,4-dihydro-2H-benzo[b][1,4]oxazin-8-yl)ethylamino)ethyl)-3-(3-(1-methyl-1H-pyrazol-4-yl)phenethoxy)propanamide Trifluoroacetic Acid Salt] | 0.88 | 12.6
2 | CCCC[C@@H](C)N(CCNCCc1ccc(O)c2c1OCC(=O)N2)C(=O)CCOCCc1cccc(-c2cnn(C)c2)c1 [Example 30, (R)—N-(Hexan-2-yl)-N-(2-(2-(5-hydroxy-3-oxo-3,4-dihydro-2H-benzo[b][1,4]oxazin-8-yl)ethylamino)ethyl)-3-(3-(1-methyl-1H-pyrazol-4-yl)phenethoxy)propanamide Trifluoroacetic Acid Salt] | 0.93 | 12.6
3 | Cn1cc(-c2cccc(CCOCCC(=O)N(CCNCCc3ccc(O)c4c3OCC(=O)N4)C3CCCCCC3)c2)cn1 [Example 31, N-Cycloheptyl-N-(2-(2-(5-hydroxy-3-oxo-3,4-dihydro-2H-benzo[b][1,4]oxazin-8-yl)ethylamino)ethyl)-3-(3-(1-methyl-1H-pyrazol-4-yl)phenethoxy)propanamide Trifluoroacetic Acid Salt] | 0.93 | 3.16
4 | Cn1ccnc1-c1cccc(CCOCCC(=O)N(CCNCCc2ccc(O)c3c2OCC(=O)N3)C2CCCCC2)c1 [Example 33, N-Cyclohexyl-N-(2-(2-(5-hydroxy-3-oxo-3,4-dihydro-2H-benzo[b][1,4]oxazin-8-yl)ethylamino)ethyl)-3-(3-(1-methyl-1H-imidazol-2-yl)phenethoxy)propanamide] | 0.93 | 12.6
5 | Cc1c(-c2cccc(CCOCCC(=O)N(CCNCCc3ccc(O)c4c3OCC(=O)N4)C3CCCCC3)c2)cnn1C [Example 37, N-Cyclohexyl-3-(3-(1,5-dimethyl-1H-pyrazol-4-yl)phenethoxy)-N-(2-(2-(5-hydroxy-3-oxo-3,4-dihydro-2H-benzo[b][1,4]oxazin-8-yl)ethylamino)ethyl)propanamide Trifluoroacetic Acid Salt] | 0.85 | 6.31

Further lines, results first:

Row | β2 Int Act | EC50 [nM] | Structure (SMILES)
6 | 0.91 | 15.8 | Cc1nc(-c2cccc(CCOCCC(=O)N(CCNCCc3ccc(O)c4c3OCC(=O)N4)C3CCCCC3)c2)no1 [Example 27, N-Cyclohexyl-N-(2-(2-(5-hydroxy-3-oxo-3,4-dihydro-2H-benzo[b][1,4]oxazin-8-yl)ethylamino)ethyl)-3-(3-(5-methyl-1,2,4-oxadiazol-3-yl)phenethoxy)propanamide Trifluoroacetic Acid Salt]
7 | 0.90 | 6.31 | CCn1cc(-c2cccc(CCOCCC(=O)N(CCNCCc3ccc(O)c4c3OCC(=O)N4)C3CCCCC3)c2)cn1 [Example 28, N-Cyclohexyl-3-(3-(1-ethyl-1H-pyrazol-4-yl)phenethoxy)-N-(2-(2-(5-hydroxy-3-oxo-3,4-dihydro-2H-benzo[b][1,4]oxazin-8-yl)ethylamino)ethyl)propanamide]
8 | 0.90 | 50.1 | CCn1ccnc1-c1cccc(CCOCCC(=O)N(CCNCCc2ccc(O)c3c2OCC(=O)N3)C2CCCCC2)c1 [Example 29, N-Cyclohexyl-3-(3-(1-ethyl-1H-imidazol-2-yl)phenethoxy)-N-(2-(2-(5-hydroxy-3-oxo-3,4-dihydro-2H-benzo[b][1,4]oxazin-8-yl)ethylamino)ethyl)propanamide Trifluoroacetic Acid Salt]
9 | 1.00 | 7.94 | Cc1nc(-c2cccc(CCOCCC(=O)N(CCNCCc3ccc(O)c4c3OCC(=O)N4)C3CCCCC3)c2)[nH]c1C [Example 32, N-Cyclohexyl-3-(3-(4,5-dimethyl-1H-imidazol-2-yl)phenethoxy)-N-(2-(2-(5-hydroxy-3-oxo-3,4-dihydro-2H-benzo[b][1,4]oxazin-8-yl)ethylamino)ethyl)propanamide]
10 | 1.03 | 12.6 | Cc1nc(-c2cccc(CCOCCC(=O)N(CCNCCc3ccc(O)c4c3OCC(=O)N4)C3CCCCC3)c2)cn1C [Example 35, N-Cyclohexyl-3-(3-(1,2-dimethyl-1H-imidazol-4-yl)phenethoxy)-N-(2-(2-(5-hydroxy-3-oxo-3,4-dihydro-2H-benzo[b][1,4]oxazin-8-yl)ethylamino)ethyl)propanamide Trifluoroacetic Acid Salt]
11 | 1.05 | 20 | COCCn1cc(-c2cccc(CCOCCC(=O)N(CCNCCc3ccc(O)c4c3OCC(=O)N4)C3CCCCC3)c2)cn1 [Example 36, N-Cyclohexyl-N-(2-(2-(5-hydroxy-3-oxo-3,4-dihydro-2H-benzo[b][1,4]oxazin-8-yl)ethylamino)ethyl)-3-(3-(1-(2-methoxyethyl)-1H-pyrazol-4-yl)phenethoxy)propanamide Trifluoroacetic Acid Salt]
